Results reported in US9102648B1, “Bioavailable diacylhydrazine ligands for modulating the expression of exogenous genes via an ecdysone receptor complex” (Intrexon Corporation, priority 2003, dated 2015).

Legend:
[1] = Determination of LC Log P (experimental); assay type: physicochemical; settings: for chromatographic logP: read-out: LC LogP (exp)
Procedure: Liquid chromatography retention times (RT) are measured for each substance using the conditions described below. A linear equation is derived relating RT to log P is developed from the data for the log P standards. The log P for the test compound is calculated from the log P/retention time equation.

[2] = system: mutated ecdysone receptor-based gene switch; assay: In vivo SEAP induction, ligand by IP injection; parameters: species or system C57BL/6 mouse; settings: for Secreted Alkaline Phosphatase (percentage of GS ™-E ligand induction) Day 2 / Secreted Alkaline Phosphatase (percentage of GS ™-E ligand induction) Day 3 / Secreted Alkaline Phosphatase (percentage of GS ™-E ligand induction) Day 11: mouse serum; for Secreted Alkaline Phosphatase (percentage of GS ™-E ligand induction) Day 2: IP 2.6 μmol ligand 3 days after electroporation, day 2 after ligand; for Secreted Alkaline Phosphatase (percentage of GS ™-E ligand induction) Day 3 / Secreted Alkaline Phosphatase (percentage of GS ™-E ligand induction) Day 11: IP 2.6 μmol ligand; for Secreted Alkaline Phosphatase (percentage of GS ™-E ligand induction) Day 3: day 3 after ligand; for Secreted Alkaline Phosphatase (percentage of GS ™-E ligand induction) Day 11: day 11 after ligand; for Secreted Alkaline Phosphatase Day 2 / Secreted Alkaline Phosphatase Day 3 / Secreted Alkaline Phosphatase Day 7: IP 26 nmol ligand
Procedure: Applicants' ligands are useful in various applications including gene therapy, expression of proteins of interest in host cells, production of transgenic organisms, and cell-based assays. In vivo induction of a reporter enzyme with various ligands of the present invention was evaluated in a C57BL/6 mouse model system containing a gene switch.
Each element of the gene switch was on a separate plasmid. Receptor expression was under the control of a CMV promoter (SEQ ID NO: 15). Induction was evaluated by the amount of reporter protein expressed in the presence of ligand.
SEAP expression in serum of mice was evaluated after electroporation of the gene switch into mouse quadriceps. Mice were anesthetized with 2 μL/g of a mixture of ketamine (100 mg/mL) and xylazine (20 mg/mL). Animals were then shaved, DNA vectors injected into the muscle in a volume of 2×50 μL polyglutamic acid (12 mg/mL water), electrode conductivity gel applied, and an electrode caliber (1 cm×1 cm; model 384) was placed on hind leg. The muscle was electroporated with 200 V/cm, 8 times, for 20 msec/pulse, at 1 sec time intervals. The transverse electrical field direction was reversed after the animals received half of the pulses. Electroporation was performed with an ECM 830 electroporator from BTX Molecular Delivery Systems.
In some experiments mice received an intraperitoneal injection (IP) of 2.6 μmol of ligand in 50 μL of DMSO 3 days after electroporation of the gene switch. In other experiments the concentration of ligand was decrease to 26 nmol/50 μL of DMSO/mouse. SEAP expression was evaluated 2-11 days after ligand administration. In other experiments ligand was administered in rodent chow. The chow was prepared by dissolving 2 g of ligand in 20 mL of acetone and adding it to 1 kg of LabDiet 5010 autoclavable chow from Purina Mills. This was thoroughly mixed in a Hobart mixer and then mixed for an additional 15 min in a Cross Blend mixer. Animals received chow ad libitum for 1, 2, or 3 days. All values are the average from four animals. Background SEAP in sera from animals treated with vector alone without ligand addition was 0-11 ng/mL serum.
Mouse serum was obtained by centrifugation of blood acquired by retroorbital bleeding with a small glass capillary tube. SEAP quantification was determined using a Clontech Great Escape chemiluminescence kit and by comparison with the Clontech SEAP standard.
Table 9: In vivo evaluation of ligand-mediated induction of a mutated ecdysone receptor-based gene switch. SEAP expression in serum of mice was evaluated after electroporation of the gene expression cassettes into mouse quadriceps. Mice received an IP injection of 2.6 μmol of ligand 3 days after electroporation. SEAP expression was evaluated 2-11 days after ligand administration. Each dose group was composed of four animals. Percentage of GS™-E ligand induction was determined by averaging SEAP expression from four animals divided by the average SEAP expression induced with GS™-E ligand and then multiplying by 100.
Table 10: Induction of gene switch expression with low concentrations of ligand. SEAP expression in serum of mice was evaluated after electroporation of the gene expression cassettes into mouse quadriceps. Mice received an IP injection of 26 nmol of ligand or 130 nmol GS™-E ligand 3 days after electroporation. SEAP expression was evaluated 2-7 days after ligand administration. Values are the average from 4 animals.

[3] = from LC retention time against log P standards

SMILES | chromatographic logP [1, 3] | Secreted Alkaline Phosphatase (percentage of GS ™-E ligand induction) Day 2 [2] | Secreted Alkaline Phosphatase (percentage of GS ™-E ligand induction) Day 3 [2] | Secreted Alkaline Phosphatase (percentage of GS ™-E ligand induction) Day 11 [2] | Secreted Alkaline Phosphatase Day 2 [2] | Secreted Alkaline Phosphatase Day 3 [2] | Secreted Alkaline Phosphatase Day 7 [2] | LC LogP (exp) [1, 3] | logP ([1]; diacylhydrazine log P standards (log P known experimentally))
COc1cc(C(=O)N(NC(=O)c2ccc3c(c2C)OCCO3)C(C)(C)C)cc(OC)c1O [RG-115009, 4-Hydroxy-3,5-dimethoxy-benzoic acid N-tert-butyl-N′-(5-methyl-2,3-dihydro-benzo[1,4]dioxine-6-carbonyl)-hydrazide] | 1.9 | 4 percentage of GS ™-E ligand induction | 3 percentage of GS ™-E ligand induction | – | – | – | – | – | –
COc1cccc(C(=O)NN(C(=O)c2cc(Cl)c(F)c(Cl)c2)C(C)(C)C)c1C [RG-101382, N-(3-methoxy-2-methylbenzoyl)-N′-(3,5-dichloro-4-fluorobenzoyl)-N′-tert-butylhydrazine] | 4.4 | 92 percentage of GS ™-E ligand induction | 81 percentage of GS ™-E ligand induction | 890 percentage of GS ™-E ligand induction | – | – | – | – | –
CCc1c(OC)cccc1C(=O)NN(C(=O)c1cc(OC)c(C)c(OC)c1)C(CC)C(C)(C)C (stereo not drawn) [RG-115831] | – | 118 percentage of GS ™-E ligand induction | 121 percentage of GS ™-E ligand induction | 105 percentage of GS ™-E ligand induction | – | – | – | – | –
COc1cc(C(=O)N(NC(=O)c2ccc3c(c2C)OCCO3)C(C)(C)C)cc(OC)c1C [RG-115637, 5-Methyl-2,3-dihydro-benzo[1,4]dioxine-6-carboxylic acid N′-tert-butyl-N′-(3,5-dimethoxy-4-methyl-benzoyl)-hydrazide] | 3.54 | 12 percentage of GS ™-E ligand induction | 7 percentage of GS ™-E ligand induction | 0 percentage of GS ™-E ligand induction | – | – | – | – | –
CCC(N(NC(=O)c1cccc(OC)c1C)C(=O)c1cc(OC)c(C)c(OC)c1)C(C)(C)C (stereo not drawn) [RG-115820, 3,5-dimethoxy-4-methyl-benzoic acid N-(1-ethyl-2,2-dimethyl-propyl)-N′-(3-methoxy-2-methyl-benzoyl)-hydrazide] | – | 82 percentage of GS ™-E ligand induction | 63 percentage of GS ™-E ligand induction | 399 percentage of GS ™-E ligand induction | – | – | – | – | –
CCc1c(C(=O)NN(C(=O)c2cc(C)cc(Cl)c2)C(C)(C)C)ccc2c1OCCO2 [RG-101494, N-(5-ethyl-1,4-benzodioxan-6-carbonyl)-N′-(tert-butyl)-N′-(3-chloro-5-methylbenzoyl)hydrazine] | 4.3 | 136 percentage of GS ™-E ligand induction | 138 percentage of GS ™-E ligand induction | – | – | – | – | – | –
CCc1c(OC)cccc1C(=O)NN(C(=O)c1cc(C)cc(C)c1)C(CC)C(C)(C)C (stereo not drawn) [RG-115832] | – | 147 percentage of GS ™-E ligand induction | 189 percentage of GS ™-E ligand induction | 4,183 percentage of GS ™-E ligand induction | 2,349 ng/ml mouse sera | 1,807 ng/ml mouse sera | 149 ng/ml mouse sera | – | –
CCCC(N(NC(=O)c1cccc(OC)c1C)C(=O)c1cc(OC)c(C)c(OC)c1)C(C)(C)C (stereo not drawn) [RG-115824] | – | 102 percentage of GS ™-E ligand induction | 101 percentage of GS ™-E ligand induction | 415 percentage of GS ™-E ligand induction | – | – | – | – | –
CCc1c(OC)cccc1C(=O)NN(C(=O)c1cc(C)cc(C=NNC(=O)C(N)=O)c1)C(C)(C)C [RG-115613, oxamic hydrazone of N-(3-formyl-5-methyl-benzoyl)-N-tert-butyl-N′-(2-ethyl-3-methoxy-benzoyl) hydrazide] | – | 2 percentage of GS ™-E ligand induction | 1 percentage of GS ™-E ligand induction | – | – | – | – | 2.8 | –
COc1cc(C(=O)N(NC(=O)c2ccc3c(c2C)OCCO3)C(C)(C)C#N)cc(OC)c1C [RG-115092, N-(5-methyl-1,4-benzodioxan-6-carbonyl)-N′-(2-cyano-2-propyl)-N′-(3,5-dimethoxy-4-methylbenzoyl)hydrazine] | 3.5 | 8 percentage of GS ™-E ligand induction | 2 percentage of GS ™-E ligand induction | – | – | – | – | – | –
CCCC(N(NC(=O)c1cccc(OC)c1CC)C(=O)c1cc(C)cc(C)c1)C(C)(C)C (stereo not drawn) [RG-115830] | – | 120 percentage of GS ™-E ligand induction | 158 percentage of GS ™-E ligand induction | 3,558 percentage of GS ™-E ligand induction | 6,835 ng/ml mouse sera | 5,339 ng/ml mouse sera | 590 ng/ml mouse sera | – | –
CCCC(N(NC(=O)c1cccc(OC)c1CC)C(=O)c1cc(OC)c(C)c(OC)c1)C(C)(C)C (stereo not drawn) [RG-115829, 3,5-Dimethoxy-4-methyl-benzoic acid N-(1-tert-butyl-butyl)-N′-(2-ethyl-3-methoxy-benzoyl)-hydrazide] | – | 72 percentage of GS ™-E ligand induction | 83 percentage of GS ™-E ligand induction | 687 percentage of GS ™-E ligand induction | – | – | – | – | –
CC(C)(C)N(NC(=O)c1ccc(Cl)cc1)C(=O)c1ccccc1 [RG-100864] | – | – | – | – | – | – | – | – | 3.2
CCC(N(NC(=O)c1cccc(OC)c1C)C(=O)c1cc(C)cc(C)c1)C(C)(C)C (stereo not drawn) [RG-115819, 3,5-dimethyl-benzoic acid N-(1-ethyl-2,2-dimethyl-propyl)-N′-(3-methoxy-2-methyl-benzoyl)-hydrazide] | – | 172 percentage of GS ™-E ligand induction | 215 percentage of GS ™-E ligand induction | 3,008 percentage of GS ™-E ligand induction | 5,984 ng/ml mouse sera | 4,096 ng/ml mouse sera | 453 ng/ml mouse sera | – | –
